Reference: patent publication US10392385B2, “N-((1-phenyl-9H-pyrido[3,4-b]indol-3-yl)methyl)cinnamamides as potential anticancer agents and preparation thereof” (Council of Scientific & Industrial Research, priority 2016, dated 2019)

Experiments:
HeLa (cervical cancer) = assay: MTT cytotoxicity assay, HeLa; format: cell-based; details: Homo sapiens, of drug treatment (footnote), average of three experiments
From the text: (§1) The N-((1-phenyl-9H-pyrido[3,4-b]indol-3-yl)methyl)cinnamamides (1a-h, 2a-h and 3a-h) have been tested against five human cancer cell lines such as A549 (lung cancer), MCF-7 (breast cancer), B16 (melanoma), HeLa (cervical cancer) and NIH3T3 (mouse embryonic fibroblast cancer). All the cancer cell lines (HeLa, A549, MCF-7 and B16) were procured from National Centre for Cell Sciences (NCCS, Pune, India) and NIH 3T3 cell line was obtained from American Type Culture Collection (Rockville, Md., USA). Stock cells were cultured in DMEM supplemented with 10% Fetal Bovine Serum (FBS), in an humidified atmosphere of 5% CO2 at 37° C. until they are 80% confluent. To study the cytotoxicity of the compounds, after 80% confluence, cells were trypsinized with 0.1% trypsin-EDTA and harvested by centrifugation at 500×g. Serial dilutions of cells were made from 1×10^6 to 1×10^3 cells per mL The cells were seeded in triplicate in a 96 well plate. […]. […] The cell viability was determined by measuring the ability of cells to transform MTT to a purple coloured formazan dye. The absorbance of samples at 570 nm was measured using a UV-Visible spectrophotometer. Percentage of viable cells was calculated by using the formula given below.
(§2) Where the OD570 (sample) corresponds to absorbance obtained from the wells treated with compound and OD570 (control) represents the absorbance from the wells in which no compound was added. For these compounds results are expressed as half maximal inhibitory concentration (IC50) values and the anticancer activity data of 1a-h, 2a-h and 3a-h are shown in Table 2.

B16 (melanoma) = assay: MTT cytotoxicity assay, B16; format: cell-based; details: 48 h of drug treatment (footnote), average of three experiments
From the text: as §1, §2

A549 (lung cancer) = assay: MTT cytotoxicity assay, A549; format: cell-based; details: Homo sapiens, 48 h of drug treatment (footnote), average of three experiments
From the text: as §1
Where the OD570 (sample) corresponds to absorbance obtained from the wells treated with compound and OD570 (control) represents the absorbance from the wells in which no compound was added.

MCF-7 (breast cancer) = assay: MTT cytotoxicity assay, MCF-7; format: cell-based; details: Homo sapiens, MCF7, average of three experiments
From the text: as §1, §2

[1] = test system: NIH3T3 (mouse embryonic fibroblast cell line); assay: MTT cytotoxicity assay, NIH3T3; format: cell-based; details: 48 h of drug treatment (footnote), average of three experiments
From the text: as §1, §2

**Q.** What does the source list for COc1cc(/C=C/C(=O)NCc2cc3c([nH]c4ccccc43)c(-c3cccc(F)c3)n2)cc(OC)c1OC [Compound 1a, (E)-N-((1-(3-fluorophenyl)-9H-pyrido[3,4-b]indol-3-yl)methyl)-3-(3,4,5-trimethoxyphenyl)acrylamide]?
**A.** IC50 (HeLa (cervical cancer)): 0.023 ± 0.0007 µM; IC50 (B16 (melanoma)): 0.0198 ± 0.0006 µM; IC50 (A549 (lung cancer)): 0.0179 ± 0.0006 µM; IC50 (MCF-7 (breast cancer)): 0.0162 ± 0.0015 µM; melting point: 148 to 150 °C; IC50 [1]: 0.036 ± 0.0013 µM

**Q.** For O=C(/C=C/c1ccc(Cl)c(Cl)c1)NCc1cc2c([nH]c3ccccc32)c(-c2cccc(F)c2)n1 [Compound 1b, (E)-3-(3,4-dichlorophenyl)-N-((1-(3-fluorophenyl)-9H-pyrido[3,4-b]indol-3-yl)methyl)acrylamide], which IC50 (HeLa (cervical cancer)) is on record?
**A.** 0.0249 ± 0.0004 µM

**Q.** And the IC50 (B16 (melanoma))?
**A.** 0.0189 ± 0.0004 µM

**Q.** And the IC50 (A549 (lung cancer))?
**A.** 0.018 ± 0.0008 µM

**Q.** And the IC50 (MCF-7 (breast cancer))?
**A.** 0.017 ± 0.0012 µM

**Q.** What about the melting point of the same compound?
**A.** 255 to 258 °C

**Q.** And the IC50 [1]?
**A.** 0.039 ± 0.0011 µM

**Q.** Which IC50 (HeLa (cervical cancer)) does the source give for O=C(/C=C/c1ccc(F)cc1)NCc1cc2c([nH]c3ccccc32)c(-c2cccc(F)c2)n1 [Compound 1c, (E)-3-(4-fluorophenyl)-N-((1-(3-fluorophenyl)-9H-pyrido[3,4-b]indol-3-yl)methyl)acrylamide] here?
**A.** 0.0243 ± 0.0006 µM

**Q.** And the IC50 (B16 (melanoma))?
**A.** 0.0168 ± 0.0008 µM

**Q.** And the IC50 (A549 (lung cancer))?
**A.** 0.0163 ± 0.0003 µM

**Q.** What about the IC50 (MCF-7 (breast cancer)) of the same compound?
**A.** 0.0165 ± 0.0018 µM

**Q.** And the melting point?
**A.** 258 to 264 °C

**Q.** What about the IC50 [1] of the same compound?
**A.** 0.0308 ± 0.0021 µM

**Q.** For O=C(/C=C/c1cc(F)cc(F)c1)NCc1cc2c([nH]c3ccccc32)c(-c2cccc(F)c2)n1 [Compound 1d, (E)-3-(3,5-difluorophenyl)-N-((1-(3-fluorophenyl)-9H-pyrido[3,4-b]indol-3-yl)methyl)acrylamide], which IC50 (HeLa (cervical cancer)) is on record?
**A.** 0.0236 ± 0.0005 µM

**Q.** What about the IC50 (B16 (melanoma)) of the same compound?
**A.** 0.0182 ± 0.0003 µM

**Q.** And the IC50 (A549 (lung cancer))?
**A.** 0.021 ± 0.0012 µM

**Q.** And the IC50 (MCF-7 (breast cancer))?
**A.** 0.0165 ± 0.0006 µM

**Q.** And the melting point?
**A.** 215 to 220 °C

**Q.** What about the IC50 [1] of the same compound?
**A.** 0.036 ± 0.0023 µM

**Q.** Which IC50 (HeLa (cervical cancer)) does the source give for COc1ccc(OC)c(/C=C/C(=O)NCc2cc3c([nH]c4ccccc43)c(-c3cccc(F)c3)n2)c1 [Compound 1e, (E)-3-(2,5-dimethoxyphenyl)-N-((1-(3-fluorophenyl)-9H-pyrido[3,4-b]indol-3-yl)methyl)acrylamide] here?
**A.** 0.02187 ± 0.0002 µM

**Q.** And the IC50 (B16 (melanoma))?
**A.** 0.0199 ± 0.0007 µM

**Q.** And the IC50 (A549 (lung cancer))?
**A.** 0.0222 ± 0.0011 µM

**Q.** And the IC50 (MCF-7 (breast cancer))?
**A.** 0.0175 ± 0.0003 µM

**Q.** What about the melting point of the same compound?
**A.** 228 to 230 °C

**Q.** And the IC50 [1]?
**A.** 0.0396 ± 0.0018 µM

**Q.** With O=C(/C=C/c1ccc(Cl)cc1)NCc1cc2c([nH]c3ccccc32)c(-c2cccc(F)c2)n1 [Compound 1f, (E)-3-(4-chlorophenyl)-N-((1-(3-fluorophenyl)-9H-pyrido[3,4-b]indol-3-yl)methyl)acrylamide] as the compound, how does the IC50 (HeLa (cervical cancer)) read?
**A.** 0.0192 ± 0.0006 µM

**Q.** What about the IC50 (B16 (melanoma)) of the same compound?
**A.** 0.0182 ± 0.0013 µM

**Q.** What about the IC50 (A549 (lung cancer)) of the same compound?
**A.** 0.0196 ± 0.0016 µM

**Q.** And the IC50 (MCF-7 (breast cancer))?
**A.** 0.0183 ± 0.0008 µM

**Q.** What about the melting point of the same compound?
**A.** 248 to 250 °C

**Q.** And the IC50 [1]?
**A.** 0.0437 ± 0.0011 µM

**Q.** What does the source list for COc1cc(/C=C/C(=O)NCc2cc3c([nH]c4ccccc43)c(-c3cccc(F)c3)n2)ccc1O [Compound 1g, (E)-N-((1-(3-fluorophenyl)-9H-pyrido[3,4-b]indol-3-yl)methyl)-3-(4-hydroxy-3-methoxyphenyl)acrylamide]?
**A.** IC50 (HeLa (cervical cancer)): 0.0239 ± 0.0004 µM; IC50 (B16 (melanoma)): 0.0194 ± 0.0011 µM; IC50 (A549 (lung cancer)): 0.0224 ± 0.0011 µM; IC50 (MCF-7 (breast cancer)): 0.0179 ± 0.0007 µM; melting point: 205 to 210 °C; IC50 [1]: 0.0369 ± 0.0019 µM

**Q.** Which IC50 (HeLa (cervical cancer)) does the source give for O=C(/C=C/c1cccc(O)c1)NCc1cc2c([nH]c3ccccc32)c(-c2cccc(F)c2)n1 [Compound 1h, (E)-N-((1-(3-fluorophenyl)-9H-pyrido[3,4-b]indol-3-yl)methyl)-3-(3-hydroxyphenyl)acrylamide] here?
**A.** 0.027 ± 0.0005 µM

**Q.** What about the IC50 (B16 (melanoma)) of the same compound?
**A.** 0.0249 ± 0.0005 µM

**Q.** What about the IC50 (A549 (lung cancer)) of the same compound?
**A.** 0.0234 ± 0.0008 µM

**Q.** And the IC50 (MCF-7 (breast cancer))?
**A.** 0.0192 ± 0.0006 µM

**Q.** And the melting point?
**A.** 142 to 148 °C

**Q.** And the IC50 [1]?
**A.** 0.0357 ± 0.0022 µM

**Q.** Which IC50 (HeLa (cervical cancer)) does the source give for COc1cc(/C=C/C(=O)NCc2cc3c([nH]c4ccccc43)c(-c3cc(OC)c(OC)c(OC)c3)n2)cc(OC)c1OC [Compound 2a, (E)-3-(3,4,5-trimethoxyphenyl)-N-((1-(3,4,5-trimethoxyphenyl)-9H-pyrido[3,4-b]indol-3-yl)methyl)acrylamide] here?
**A.** 0.0235 ± 0.0003 µM

**Q.** And the IC50 (B16 (melanoma))?
**A.** 0.0172 ± 0.0004 µM

**Q.** What about the IC50 (A549 (lung cancer)) of the same compound?
**A.** 0.0213 ± 0.0009 µM

**Q.** And the IC50 (MCF-7 (breast cancer))?
**A.** 0.0165 ± 0.0011 µM

**Q.** What about the IC50 [1] of the same compound?
**A.** 0.0389 ± 0.0025 µM

**Q.** Which IC50 (HeLa (cervical cancer)) does the source give for COc1cc(-c2nc(CNC(=O)/C=C/c3ccc(Cl)c(Cl)c3)cc3c2[nH]c2ccccc23)cc(OC)c1OC [Compound 2b, (E)-3-(3,4-dichlorophenyl)-N-((1-(3,4,5-trimethoxyphenyl)-9H-pyrido[3,4-b]indol-3-yl)methyl)acrylamide] here?
**A.** 0.02587 ± 0.0002 µM

**Q.** And the IC50 (B16 (melanoma))?
**A.** 0.0169 ± 0.0007 µM

**Q.** And the IC50 (A549 (lung cancer))?
**A.** 0.0204 ± 0.0007 µM

**Q.** What about the IC50 (MCF-7 (breast cancer)) of the same compound?
**A.** 0.0175 ± 0.0014 µM

**Q.** What about the IC50 [1] of the same compound?
**A.** 0.0392 ± 0.0019 µM
